These results are taken from patent US8637470B2, “Small humanin-like peptides” (The Regents of the University of California, priority 2008, dated 2014).

Entries after “also recorded” stand apart in the source; their conditions may differ.

Assay [1] concerns STAT3. Put plainly: STAT3 phosphorylation in NIT-1 cells (immunoblotting). The format is cell-based, mouse. The note with it: NIT-1, 100 nM. The method, then: (§1) In addition to 22RV1, the effects of SHLPs on ERK and STAT3 phosphorylation were also studied in NIT-1 pancreatic β-cells. […] Indeed, the activation profile caused by SHLP3 in NIT-1 is remarkably similar to that stimulated by SHLP2 in 22RV1. When ERK activation was quantified by ELISA, a 6-fold and 9-fold activation was observed after 2 and 24 h, respectively, by SHLP2.
On the technique in general: In western blotting, separated proteins are transferred to a membrane and probed.

For assay [2], the system named is STAT3. Put plainly: STAT3 activation in 22RV1 cells (immunoblotting). Conditions: 22RV1, 100 nM. The format is cell-based, human. The method, then:
Since HN causes activation of STAT3, SHLPs 2 and 3 were also tested for effects on STAT3. […] To more accurately quantify the ERK phosphorylation caused by SHLPs 2 and 3, we repeated the experiment as described above but used a commercially available ERK ELISA to assess ERK phosphorylation. Optimal ERK activation by SHLP2 was 9-fold after 24 h, whilst optimal activation by SHLP3 was 12-fold after 2 h (FIG. 5).

The subject of assay [3] is Mouse NIT-1 insulinoma β-cells. Put plainly: Cell proliferation (cell number by MTT/MTS cleavage) in NIT-1 cells. The format is cell-based. Conditions: NIT-1, 100 nM peptide, 72 h. The method, then:
SHLPs exert distinct effects on cell proliferation. Whether SHLPs have the capacity to influence cell proliferation, in addition to their intrinsic effects on apoptosis induction, was also investigated. Mouse NIT-1 insulinoma β-cells and 22RV1 human prostate cancer cells were serum starved for 24 h, followed by 72 h incubation with 100 nM scrambled control peptide, HN or SHLPs. Cell number, as a measure of cell proliferation, was assessed by cleavage of MTT substrate.

The test system of assay [4] is Mouse primary cortical neurons. As to the kind of experiment: Protection of primary cortical neurons from Aβ-induced cell death (Calcein-AM). The format is cell-based. The note with it: 25 μM Aβ1-43, 100 nM peptide, 72 h. The method, then: SHLPs protect neurons from Aβ-induced apoptosis. When it was first discovered, HN was described as a potent neural survival factor with clinical implications as a therapeutic agent against neurodegenerative diseases such as Alzheimer's Disease. Since many of the SHLPs appear to be functionally related to HN, SHLPs were tested as potential neuroprotective factors. Mouse primary cortical neurons were incubated with 25 μM Aβ1-43 in the presence or absence of 100 nM SHLP2 or 3, HNG (positive control) or 1 nM colivelin (positive control). After 72 h, neuronal viability was assessed by Calcein-AM staining followed by fluorescence microscopy (FIG. 13).

In the next assay the test system is ERK. As to the kind of experiment: ERK phosphorylation in NIT-1 cells (immunoblotting, ELISA). The class given is cell-based, mouse. The note with it: NIT-1, 100 nM. The method, then:
as §1

For assay [5], the system named is Mouse NIT-1 insulinoma β-cells. Put plainly: Apoptosis ELISA (fragmentation of histone-associated DNA) in NIT-1 cells. The class given is cell-based. The note with it: for Effect on apoptosis in the presence of IGFBP-3: NIT-1, 1 μg/ml IGFBP-3 plus SHLP; for Effect of SHLP on apoptosis after PD98059 pre-treatment: NIT-1, 25 μM PD98059 (ERK1/2 inhibitor). The method, then: SHLPs are anti-apoptotic in 22RV1 prostate cancer cells and NIT-1 β-cells. […] Mouse NIT-1 insulinoma β-cells and 22RV1 human prostate cancer cells were serum starved for 24 h, followed by 24 h incubation with 100 nM scrambled control peptide, HN or SHLPs. Apoptosis was assessed and quantified by ELISA for fragmentation of histone-associated DNA.
ERK activation is necessary for SHLP-induced inhibition of apoptosis in NIT-1 and 22RV1 cells. To determine the significance of ERK activation for apoptosis inhibition by SHLPs 2 and 3, PD98059 (PD), a specific chemical inhibitor of ERK1/2, was utilized. 22RV1 and NIT-1 cells were serum starved for 24 h in the presence or absence of 25 μM PD or 1 μM wortmannin (PI3-kinase inhibitor; negative control), followed by 24 h incubation with […] scrambled control peptide, SHLP2 or SHLP3. Apoptosis was then assessed by ELISA for fragmentation of histone-associated DNA.
Role of IGFBP-3 in effects of SHLPs on cell survival. Since IGFBP-3 is an important regulator of HN action, IGFBP-3 was tested for a possible role in regulating the anti- or pro-apoptotic actions of SHLPs. NIT-1 cells were incubated with 1 μg/ml IGFBP-3±0, 10, 100 or 1000 nM SHLP2 or 3 for 24 h. Apoptosis induction was assessed by ELISA for fragmentation of histone-associated DNA.
Co-incubation of SHLPs. To evaluate therapeutic uses involving co-treatment with SHLPs, the effect of HN±SHLPs on apoptosis was tested in both 22RV1 and NIT-1 cells. Cells were incubated in SF media for 24 h followed by 24 h with 100 nM HN, SHLP or peptide combination. Apoptosis was assessed by ELISA for fragmentation of histone-associated DNA. Cells were treated with all possible double peptide combinations. Although many peptide combinations had no additive or combined effects compared with the actions of the peptides individually, co-treatment with certain combinations led to unexpected functional changes (FIG. 11). […] Thus, specific SHLPs may either act on complementary pathways, or interact with each other, leading to change of function of one or both peptides. When the same experiments were repeated in NIT-1 cells, similar, but different, change of function effects were observed (FIG. 11B).
On the technique in general: ELISA stands for enzyme-linked immunosorbent assay.

Assay [6] deals with murine 3T3-L1 fibroblasts. Put plainly: 3T3-L1 adipocyte differentiation (oil red-O staining). The format is cell-based. The note with it: 100 nM peptide with 10 nM insulin, 7 days. The method, then:
SHLPs 2 and 3 Stimulate Adipocyte Differentiation of 3T3-L1 Cells in vitro. […] We next assessed the ability of SHLP2, 3 and 6 to modulate the differentiation of 3T3-L1 adipocytes. Differentiation was induced in murine 3T3-L1 fibroblasts by incubation in 1 μM dexamethasone, 100 nM insulin, and 500 μM lisobutylmethyxanthine for 2 days, followed by incubation with 10 nM insulin in the presence of 100 nM scrambled peptide (control), SHLP2, SHLP3 or SHLP6 for 7 days. Differentiation was assessed by oil red-0 staining as a measure of oil droplet formation.

The next assay deals with S. cerevisiae. As to the kind of experiment: Yeast heat shock survival. The class given is cell-based. Conditions: 10 μM peptide, 90° heat shock. The method, then: SHLPs enhance stress resistance in yeast. The ability of SHLPs to enhance stress resistance in yeast was tested. The ability of yeast to survive heat shock after being treated with different peptides is a commonly used method to test the ability of peptides to enhance yeast survival.

Where [7] appears, read: NIT-1, 0, 10, 100 or 1000 nM SHLP, 24 h.

With “MGVKFFTLSTRFFPSVQRAVPLWTNS [SHLP2, small humanin-like peptide, mtDNA 2092-2170]”, the “STAT3 activation/phosphorylation (immunoblotting)” value with STAT3 [1] was “temporally similar to the timing of ERK activation”. Moreover, the “STAT3 activation (immunoblotting)” value in the assay with STAT3 [2] was “significantly enhanced STAT3 activation”. Besides, the “Cell number as a measure of cell proliferation” value in assay [3] is “much greater effect”. In assay [4], the “Neuronal viability against Aβ-induced cell death” value is reported as “protect the neurons from the cell death; also recorded: function as neuro-protective factors”. Besides, the “ERK phosphorylation profile (immunoblotting)” value in the assay with ERK is “detected within 30 min”. In addition, the entries for the “ERK activation (ELISA)” value with ERK (after 2 h) and in the assay on ERK (after 24 h) were 6 fold and 9 fold, respectively. Also, the “Apoptosis (fragmentation of histone-associated DNA)” value is “dose dependent inhibition of apoptosis” in assay [5] (setting [7]) and “significantly inhibited” in assay [5] (NIT-1, serum starved 24 h, then 24 h with 100 nM peptide). For the same sequence, in assay [5] (NIT-1, 1 μM wortmannin (PI3-kinase inhibitor)), the “SHLP-induced cell survival after wortmannin pre-treatment” value was “not in NIT-1 cells”. Moreover, the “Effect on apoptosis in the presence of IGFBP-3” value in assay [5] (24 h) is recorded as “unaffected by the presence of IGFBP-3”. Besides, the “Effect of SHLP on apoptosis after PD98059 pre-treatment” value in assay [5] is “abrogated”. Besides, the “Adipocyte differentiation (oil red-O staining)” value in assay [6] was “strikingly induced adipocyte differentiation; also recorded: stimulate 3T3-L1 adipocyte differentiation”. For the same sequence, the “Yeast survival of heat shock” value in the assay with S. cerevisiae was “allowed the yeast to withstand 90° heat shock; also recorded: enhance yeast survival against heat shock”.
Consider “MLGYNFSSFPCGTISIAPGFNFYRLYFIWVNGLAKVVW [SHLP3, small humanin-like peptide, mtDNA 1707-1821]”, for which the “STAT3 activation/phosphorylation (immunoblotting)” value with STAT3 [1] is “only slightly stimulate”. Also, in the assay on STAT3 [2], the “STAT3 activation (immunoblotting)” value is given as “significantly enhanced STAT3 activation”. The “Cell number as a measure of cell proliferation” value in assay [3] was “much greater effect”. Also, the “Neuronal viability against Aβ-induced cell death” value in assay [4] is recorded as “protect the neurons from the cell death; also recorded: function as neuro-protective factors”. The “ERK phosphorylation profile (immunoblotting)” value in the assay with ERK is “more delayed response”. Moreover, the figures for the “ERK activation (ELISA)” value in the assay on ERK (after 2 h) and with ERK (after 24 h) were “no detectable increase” and 15 fold, respectively. Further, the “Apoptosis (fragmentation of histone-associated DNA)” value in assay [5] (setting [7]) was “reduced levels of apoptosis”. The “Effect on apoptosis in the presence of IGFBP-3” value in assay [5] (24 h) is given as “inhibit IGFBP-3-induced apoptosis”. In addition, the “Effect of SHLP on apoptosis after PD98059 pre-treatment” value in assay [5] is “abrogated”. Also, the “Adipocyte differentiation (oil red-O staining)” value in assay [6] is on record as “strikingly induced adipocyte differentiation; also recorded: stimulate 3T3-L1 adipocyte differentiation”. Besides, the “Yeast survival of heat shock” value in the assay with S. cerevisiae is “allowed the yeast to withstand 90° heat shock; also recorded: enhance yeast survival against heat shock”.
